Experimental data reported in ChEMBL document CHEMBL4346687, “Design, synthesis and biological evaluation of novel uracil derivatives bearing 1, 2, 3-triazole moiety as thymidylate synthase (TS) inhibitors and as potential antitumor drugs” (Eur J Med Chem, 2019).
Activity calls are given as the source filed them. No cut-off for these calls is given here.

Tests used:
Thymidylate synthase = Thymidylate synthase (Homo sapiens, UniProt P04818); assay: Inhibition of human thymidylate synthase using dUMP as substrate by spectrophotometric method
A549 [1] = assay: Antiproliferative activity against human A549 cells assessed as reduction in cell viability at 10 uM after 24 hrs by MTT assay; type: functional; conditions: A549, 24 h
[2] = Selectivity index, ratio of CC50 for cytotoxicity against human IOSE-80 cells to IC50 for antiproliferative activity against human OVCAR3 cells; conditions: IOSE-80 cells (CC50) versus OVCAR3 cells (IC50)
A549 [3] = assay: Antiproliferative activity against human A549 cells assessed as reduction in cell viability at 20 uM after 24 hrs by MTT assay; type: functional; conditions: A549, 24 h
[4] = Cytotoxicity against human IOSE-80 cells assessed as reduction in cell viability after 24 hrs by MTT assay; type: cell-based; conditions: for CC50 at 24 h: IOSE-80 cells; for CC50: 24 h
A549 [5] = assay: Antiproliferative activity against human A549 cells assessed as reduction in cell viability at 1.25 uM after 24 hrs by MTT assay; type: functional; conditions: A549, 24 h
[6] = Selectivity index, ratio of CC50 for cytotoxicity against human GES-1 cells to IC50 for antiproliferative activity against human SGC7901 cells; conditions: GES-1 cells (CC50) versus SGC7901 cells (IC50)
A549 [7] = assay: Antiproliferative activity against human A549 cells assessed as reduction in cell viability at 5 uM after 24 hrs by MTT assay; type: functional; conditions: A549, 24 h
[8] = (§1) Cytotoxicity against human GES-1 cells assessed as reduction in cell viability after 24 hrs by MTT assay; type: cell-based, GES1; conditions: GES-1 cells
SGC-7901 = assay: cells; conditions: Homo sapiens, SGC-7901, 24 h
Description: Antiproliferative activity against human SGC7901 cells assessed as reduction in cell viability after 24 hrs by MTT assay

[9] = Selectivity index, ratio of CC50 for cytotoxicity against human HPAEpic cells to IC50 for antiproliferative activity against human A549 cells; conditions: HPAEpic cells (CC50) versus A549 cells (IC50)
A549 [10] = assay: Antiproliferative activity against human A549 cells assessed as reduction in cell viability at 0.625 uM after 24 hrs by MTT assay; type: functional; conditions: A549, 24 h
[11] = Cytotoxicity against human HPAEpic cells assessed as reduction in cell viability after 24 hrs by MTT assay; type: cell-based; conditions: for CC50 at 24 h: HPAEpic cells; for CC50: 24 h
HepG2 = assay: cells; conditions: Homo sapiens, HepG2, 24 h
Description: Antiproliferative activity against human HepG2 cells assessed as reduction in cell viability after 24 hrs by MTT assay

[12] = Selectivity index, ratio of CC50 for cytotoxicity against human L02 cells to IC50 for antiproliferative activity against human HepG2 cells; conditions: L02 cells (CC50) versus HepG2 cells (IC50)
[13] = (§2) Cytotoxicity against human L02 cells assessed as reduction in cell viability after 24 hrs by MTT assay; type: cell-based; conditions: L02 cells
OVCAR-3 = assay: cells; conditions: Homo sapiens, OVCAR-3, 24 h
Description: Antiproliferative activity against human OVCAR3 cells assessed as reduction in cell viability after 24 hrs by MTT assay

A549 [14] = assay: Induction of apoptosis in human A549 cells assessed as increase in cleaved caspase-3 protein level at 0.5 to 1.5 uM after 24 hrs by Western blot analysis; type: functional, cell-based
A549 [15] = assay: Induction of apoptosis in human A549 cells assessed as late apoptotic cells at 1.5 uM after 24 hrs by Annexin V-FITC/propidium iodide staining based flow cytometric analysis (reference value: 1.1%); type: functional
A549 [16] = assay: Induction of apoptosis in human A549 cells assessed as necrotic cells at 1.5 uM after 24 hrs by Annexin V-FITC/propidium iodide staining based flow cytometric analysis (reference value: 0.1%); type: functional
A549 [17] = assay: Cell cycle arrest in human A549 cells assessed as decrease in S phase at 0.5 to 1.5 uM after 24 hrs by propidium iodide staining based flow cytometric analysis; type: functional
A549 [18] = assay: Induction of apoptosis in human A549 cells assessed as decrease in ratio of Bcl-2/Bax at 0.5 to 1.5 uM after 24 hrs by Western blot analysis; type: functional, cell-based
A549 [19] = assay: Induction of late apoptosis in human A549 cells after 24 hrs by Annexin V-FITC/propidium iodide staining based flow cytometric analysis; type: functional, cell-based
A549 [20] = assay: Induction of apoptosis in human A549 cells assessed as viable cells at 1 uM after 24 hrs by Annexin V-FITC/propidium iodide staining based flow cytometric analysis (reference value: 98.2%); type: functional; conditions: A549, 24 h, read-out: Activity
A549 [21] = assay: Induction of apoptosis in human A549 cells assessed as late apoptotic cells at 0.5 uM after 24 hrs by Annexin V-FITC/propidium iodide staining based flow cytometric analysis (reference value: 1.1%); type: functional
A549 [22] = assay: cells; conditions: Homo sapiens, A549, 24 h
Description: Antiproliferative activity against human A549 cells assessed as reduction in cell viability after 24 hrs by MTT assay

A549 [23] = assay: Induction of apoptosis in human A549 cells assessed as early apoptotic cells at 1.5 uM after 24 hrs by Annexin V-FITC/propidium iodide staining based flow cytometric analysis (reference value: 0.6%); type: functional
A549 [24] = assay: Cell cycle arrest in human A549 cells assessed as decrease in Cyclin E protein expression at 0.5 to 1.5 uM after 24 hrs by Western blot analysis; type: functional, cell-based
A549 [25] = assay: Induction of apoptosis in human A549 cells assessed as early apoptotic cells at 0.5 uM after 24 hrs by Annexin V-FITC/propidium iodide staining based flow cytometric analysis (reference value: 0.6%); type: functional
A549 [26] = assay: Induction of early apoptosis in human A549 cells after 24 hrs by Annexin V-FITC/propidium iodide staining based flow cytometric analysis; type: functional, cell-based
A549 [27] = assay: Induction of apoptosis in human A549 cells assessed as viable cells at 0.5 uM after 24 hrs by Annexin V-FITC/propidium iodide staining based flow cytometric analysis (reference value: 98.2%); type: functional; conditions: A549, 24 h, read-out: Activity
A549 [28] = assay: Induction of apoptosis in human A549 cells assessed as necrotic cells at 1 uM after 24 hrs by Annexin V-FITC/propidium iodide staining based flow cytometric analysis (reference value: 0.1%); type: functional
A549 [29] = assay: Induction of apoptosis in human A549 cells assessed as necrotic cells at 0.5 uM after 24 hrs by Annexin V-FITC/propidium iodide staining based flow cytometric analysis (reference value: 0.1%); type: functional
A549 [30] = assay: Induction of apoptosis in human A549 cells assessed as up regulation of Bax protein expression at 0.5 to 1.5 uM after 24 hrs by Western blot analysis; type: functional, cell-based
A549 [31] = assay: Induction of apoptosis in human A549 cells assessed as activation of caspase-3 protein level at 0.5 to 1.5 uM after 24 hrs by Western blot analysis; type: functional, cell-based
A549 [32] = assay: Induction of apoptosis in human A549 cells assessed as viable cells at 1.5 uM after 24 hrs by Annexin V-FITC/propidium iodide staining based flow cytometric analysis (reference value: 98.2%); type: functional; conditions: A549, 24 h, read-out: Activity
A549 [33] = assay: Induction of apoptosis in human A549 cells assessed as late apoptotic cells at 1 uM after 24 hrs by Annexin V-FITC/propidium iodide staining based flow cytometric analysis (reference value: 1.1%); type: functional
A549 [34] = assay: Induction of apoptosis in human A549 cells assessed as down regulation of Bcl-2 protein expression at 0.5 to 1.5 uM after 24 hrs by Western blot analysis; type: functional, cell-based
A549 [35] = assay: Cell cycle arrest in human A549 cells assessed as increase in G0/G1 phase at 0.5 to 1.5 uM after 24 hrs by propidium iodide staining based flow cytometric analysis; type: functional
A549 [36] = assay: Induction of apoptosis in human A549 cells assessed as early apoptotic cells at 1 uM after 24 hrs by Annexin V-FITC/propidium iodide staining based flow cytometric analysis (reference value: 0.6%); type: functional
A549 [37] = assay: Cell cycle arrest in human A549 cells assessed as decrease in G2/M phase at 0.5 to 1.5 uM after 24 hrs by propidium iodide staining based flow cytometric analysis; type: functional
A549 [38] = assay: Cell cycle arrest in human A549 cells assessed as decrease in Cyclin D protein expression at 0.5 to 1.5 uM after 24 hrs by Western blot analysis; type: functional, cell-based
GES1 = assay: as §1; type: cell-based; conditions: ges1, 24 h
L02 = assay: as §2; type: cell-based; conditions: l02, 24 h

Thymidylate synthase, sequence (P04818 whole entry): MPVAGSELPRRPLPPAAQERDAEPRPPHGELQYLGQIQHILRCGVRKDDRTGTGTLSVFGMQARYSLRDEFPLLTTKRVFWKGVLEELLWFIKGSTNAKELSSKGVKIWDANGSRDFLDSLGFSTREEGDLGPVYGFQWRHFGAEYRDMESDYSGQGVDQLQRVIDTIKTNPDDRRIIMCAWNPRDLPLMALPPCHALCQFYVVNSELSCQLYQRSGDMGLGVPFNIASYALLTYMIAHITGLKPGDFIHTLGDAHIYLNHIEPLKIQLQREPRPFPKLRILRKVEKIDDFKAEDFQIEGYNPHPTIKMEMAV

Nc1nc2[nH]cc(CCc3ccc(C(=O)N[C@@H](CCC(=O)O)C(=O)O)cc3)c2c(=O)[nH]1 [PEMETREXED DISODIUM]
IC50 (Thymidylate synthase): 2.04 µM
inhibition at 10 µM (A549 [1]): 58.7%
selectivity ratio [2]: 3.56
inhibition at 20 µM (A549 [3]): 74.7%
CC50 at 24 h [4]: 15.5 µM
inhibition at 1.25 µM (A549 [5]): 39.9%
selectivity ratio [6]: 3.25
inhibition at 5 µM (A549 [7]): 47.1%
CC50 at 24 h [8]: 22.6 µM
IC50 (SGC-7901): 6.96 µM
selectivity ratio [9]: 7.71
inhibition at 0.625 µM (A549 [10]): 27.2%
CC50 at 24 h [11]: 25.4 µM
IC50 (HepG2): 3.73 µM
selectivity ratio [12]: 8.23
CC50 at 24 h [13]: 30.7 µM
IC50 (OVCAR-3): 4.35 µM

O=c1[nH]cc(S(=O)(=O)Nc2ccccc2-c2cn(-c3ccc(Cl)cc3)nn2)c(=O)[nH]1
Activity (A549 [14]): Active
inhibition at 10 µM (A549 [1]): 77.3%
Activity (A549 [15]): 7.1%
inhibition at 20 µM (A549 [3]): 80.2%
CC50 at 24 h [4]: 16.5 µM
Activity (A549 [16]): 4.5%
Activity (A549 [17]): Dose-dependent effect
Activity (A549 [18]): Active
Activity (A549 [19]): Dose-dependent effect
viability at 1 µM (A549 [20]): 89.7%
inhibition at 1.25 µM (A549 [5]): 55.5%
Activity (A549 [21]): 2.1%
IC50 (A549 [22]): 1.18 µM
Activity (A549 [23]): 4.1%
Activity (A549 [24]): Dose-dependent effect
Activity (A549 [25]): 1.3%
Activity (A549 [26]): Dose-dependent effect
viability at 0.5 µM (A549 [27]): 96.5%
inhibition at 5 µM (A549 [7]): 75.5%
CC50 at 24 h [8]: 26.7 µM
Activity (A549 [28]): 1.2%
IC50 (SGC-7901): 2.7 µM
inhibition at 0.625 µM (A549 [10]): 32%
Activity (A549 [29]): 0.1%
Activity (A549 [30]): Active
CC50 at 24 h [11]: 20.4 µM
Activity (A549 [31]): Active
viability at 1.5 µM (A549 [32]): 84.2%
Activity (A549 [33]): 5.6%
IC50 (HepG2): 1.84 µM
Activity (A549 [34]): Active
Activity (A549 [35]): Dose-dependent effect
CC50 at 24 h [13]: 16.8 µM
IC50 (OVCAR-3): 1.75 µM
Activity (A549 [36]): 3.5%
Activity (A549 [37]): Dose-dependent effect
Activity (A549 [38]): Dose-dependent effect

O=c1[nH]cc(S(=O)(=O)Nc2cccc(-c3cn(-c4ccc(F)cc4)nn3)c2)c(=O)[nH]1
CC50 [4]: Non-Toxic
IC50 (A549 [22]): > 20 µM
CC50 (GES1): Non-Toxic
IC50 (SGC-7901): > 20 µM
CC50 [11]: Non-Toxic
IC50 (HepG2): > 20 µM
CC50 (L02): Non-Toxic
IC50 (OVCAR-3): > 20 µM

O=c1[nH]cc(S(=O)(=O)Nc2ccc(-c3cn(-c4ccccc4)nn3)cc2)c(=O)[nH]1
CC50 [4]: Non-Toxic
IC50 (A549 [22]): 7.17 µM
CC50 (GES1): Non-Toxic
IC50 (SGC-7901): 18.8 µM
CC50 [11]: Non-Toxic
IC50 (HepG2): 18 µM
CC50 (L02): Non-Toxic
IC50 (OVCAR-3): 18 µM

Cc1ccc(-n2cc(-c3ccc(NS(=O)(=O)c4c[nH]c(=O)[nH]c4=O)cc3)nn2)cc1
CC50 at 24 h [4]: 30.5 µM
IC50 (A549 [22]): 5.56 µM
CC50 (GES1): Non-Toxic
IC50 (SGC-7901): 8.35 µM
CC50 at 24 h [11]: 29.1 µM
IC50 (HepG2): 11.6 µM
CC50 (L02): Non-Toxic
IC50 (OVCAR-3): 5.63 µM

O=c1[nH]cc(S(=O)(=O)Nc2ccccc2-c2cn(-c3cccc(F)c3)nn2)c(=O)[nH]1
CC50 [4]: Non-Toxic
IC50 (A549 [22]): 8.13 µM
CC50 (GES1): Non-Toxic
IC50 (SGC-7901): > 20 µM
CC50 at 24 h [11]: > 100 µM
IC50 (HepG2): > 20 µM
CC50 (L02): Non-Toxic
IC50 (OVCAR-3): > 20 µM

O=c1[nH]cc(S(=O)(=O)Nc2cccc(-c3cn(-c4cccc(F)c4)nn3)c2)c(=O)[nH]1
CC50 [4]: Non-Toxic
IC50 (A549 [22]): 7.2 µM
CC50 (GES1): Non-Toxic
IC50 (SGC-7901): > 20 µM
CC50 [11]: Non-Toxic
IC50 (HepG2): > 20 µM
CC50 (L02): Non-Toxic
IC50 (OVCAR-3): > 20 µM
